pKi: −log10 of the molar value.
Experiments:
[1] = biological target: T1, Gastrin/cholecystokinin type B receptor (Mus musculus, UniProt P56481); experiment: In vitro inhibitory activity against Cholecystokinin type B receptor using [125I]BH-CCK-8S as radioligand in mouse cortical membranes; format: cell membranes
T1 sequence (P56481 whole entry): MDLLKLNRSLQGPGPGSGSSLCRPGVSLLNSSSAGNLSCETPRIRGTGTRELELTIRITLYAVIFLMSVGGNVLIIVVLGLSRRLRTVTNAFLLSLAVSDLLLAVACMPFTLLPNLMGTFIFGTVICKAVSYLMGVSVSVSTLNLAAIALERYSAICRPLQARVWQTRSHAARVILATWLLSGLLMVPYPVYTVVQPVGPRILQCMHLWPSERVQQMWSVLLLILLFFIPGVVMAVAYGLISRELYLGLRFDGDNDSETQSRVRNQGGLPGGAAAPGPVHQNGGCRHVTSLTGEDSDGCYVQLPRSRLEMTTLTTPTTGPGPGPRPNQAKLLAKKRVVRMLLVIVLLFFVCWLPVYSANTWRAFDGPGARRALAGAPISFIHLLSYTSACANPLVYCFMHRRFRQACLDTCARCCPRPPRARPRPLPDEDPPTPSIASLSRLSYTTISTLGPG

[2] = biological target: T2, Cholecystokinin receptor type A (Cavia porcellus, UniProt Q63931); experiment: In vitro inhibitory activity against Cholecystokinin type A receptor using [125I]BH-CCK-8S as radioligand in guinea pig pancreatic cells
T2 sequence (Q63931 whole entry): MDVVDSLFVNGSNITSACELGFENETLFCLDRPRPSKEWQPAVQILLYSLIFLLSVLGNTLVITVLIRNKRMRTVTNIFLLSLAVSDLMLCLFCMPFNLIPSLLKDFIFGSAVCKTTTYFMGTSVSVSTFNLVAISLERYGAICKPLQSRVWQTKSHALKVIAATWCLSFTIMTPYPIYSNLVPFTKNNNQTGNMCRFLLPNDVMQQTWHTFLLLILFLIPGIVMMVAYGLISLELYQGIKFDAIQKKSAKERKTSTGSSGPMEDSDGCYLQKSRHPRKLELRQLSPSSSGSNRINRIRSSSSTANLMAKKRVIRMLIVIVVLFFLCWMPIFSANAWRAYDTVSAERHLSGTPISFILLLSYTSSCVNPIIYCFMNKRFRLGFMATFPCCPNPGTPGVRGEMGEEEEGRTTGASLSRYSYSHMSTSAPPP

Canis familiaris = experiment: Intravenous activity against CCKB/Gastrin antagonist in gastric fistula dog at dose 0.1 uM/kg (in vivo); format: functional, Canis lupus familiaris, Stomach
[3] = biological target: T3, Gastrin/cholecystokinin type B receptor (Rattus norvegicus) (UniProt P30553); experiment: Intravenous activity against Cholecystokinin type B receptor in Gosh and Schild rat at a dsoe of 0.025 umol/kg (in vivo); format: functional, organism-based
T3 sequence (whole entry): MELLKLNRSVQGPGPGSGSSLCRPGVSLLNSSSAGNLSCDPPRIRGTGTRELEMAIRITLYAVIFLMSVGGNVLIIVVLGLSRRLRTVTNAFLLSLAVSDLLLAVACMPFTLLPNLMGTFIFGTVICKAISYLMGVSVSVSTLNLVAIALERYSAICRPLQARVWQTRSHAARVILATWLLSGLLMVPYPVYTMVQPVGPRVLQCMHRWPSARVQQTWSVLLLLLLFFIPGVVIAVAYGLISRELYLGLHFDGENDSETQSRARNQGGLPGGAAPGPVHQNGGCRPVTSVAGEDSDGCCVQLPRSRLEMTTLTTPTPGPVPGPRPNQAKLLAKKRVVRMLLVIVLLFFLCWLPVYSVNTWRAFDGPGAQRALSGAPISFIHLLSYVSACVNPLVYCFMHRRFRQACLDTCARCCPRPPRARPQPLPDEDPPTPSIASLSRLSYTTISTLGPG

**Q.** How did the pKi [1] turn out when `O=C(O)c1cc(NC(=O)[C@H](Cc2ccccc2)NC(=O)c2cc3ccsc3cc2C(=O)NCC23CC4CC(CC(C4)C2)C3)cc(C(=O)O)c1` was run?
**A.** 8.91

**Q.** And the pKi [2]?
**A.** 5.65

**Q.** `O=C(NCC1CCCCCC1)c1cc2nc[nH]c2cc1C(=O)N[C@@H](Cc1ccccc1F)C(=O)Nc1cc(-c2nn[nH]n2)cc(-c2nn[nH]n2)c1` was tested. Which pKi [1] did it give?
**A.** 8.41

**Q.** And the pKi [2]?
**A.** 6.04

**Q.** How did the pKi [1] turn out when `O=C(O)c1cc(NC(=O)[C@H](Cc2ccccc2)NC(=O)c2cc3cc[nH]c3cc2C(=O)NCC2CCCCCC2)cc(C(=O)O)c1` was run?
**A.** 7.82

**Q.** What about the pKi [2] of the same compound?
**A.** 5.50

**Q.** With `O=C(O)c1cc(NC(=O)[C@H](Cc2ccccc2F)NC(=O)c2cc3cc[nH]c3cc2C(=O)NCC23CC4CC(CC(C4)C2)C3)cc(C(=O)O)c1` as the compound, how does the pKi [1] read?
**A.** 9.13

**Q.** And the pKi [2]?
**A.** 5.48

**Q.** With `O=C(O)c1cc(NC(=O)[C@H](Cc2ccccc2)NC(=O)c2cc3ccoc3cc2C(=O)NCC23CC4CC(CC(C4)C2)C3)cc(C(=O)O)c1` as the compound, how does the pKi [1] read?
**A.** 8.27

**Q.** What about the pKi [2] of the same compound?
**A.** 5.42

**Q.** Which results are given for `O=C(O)c1cc(NC(=O)[C@H](Cc2ccccc2F)NC(=O)c2cc3[nH]cnc3cc2C(=O)NCC23CC4CC(CC(C4)C2)C3)cc(C(=O)O)c1`?
**A.** pKi [1]: 8.35; pKi [2]: 5.59

**Q.** `O=C(O)C1C2c3ccccc3C(c3ccccc32)C1C(=O)NCC12CC3CC(CC(C3)C1)C2` (stereo not drawn) was tested. Which pKi [1] did it give?
**A.** 6.27

**Q.** And the pKi [2]?
**A.** 5.08

**Q.** What does the source list for `O=C(NCC12CC3CC(CC(C3)C1)C2)C1C2c3ccccc3C(c3ccccc32)C1C(=O)N1CCC[C@@H]1C(=O)O` (stereo partly drawn)?
**A.** pKi [1]: 6.05; pKi [2]: 5.09

**Q.** `O=C(NCC12CC3CC(CC(C3)C1)C2)c1cc2[nH]ccc2cc1C(=O)N[C@@H](Cc1ccccc1)C(=O)Nc1cc(-c2nn[nH]n2)cc(-c2nn[nH]n2)c1` was tested. Which pKi [1] did it give?
**A.** 8.92

**Q.** What about the pKi [2] of the same compound?
**A.** 5.89

**Q.** `O=C(O)c1cc(NC(=O)[C@H](Cc2ccccc2)NC(=O)c2cc3[nH]ccc3cc2C(=O)NCC23CC4CC(CC(C4)C2)C3)cc(C(=O)O)c1` was tested. Which pKi [1] did it give?
**A.** 7.87

**Q.** What about the pKi [2] of the same compound?
**A.** 5.47

**Q.** What does the source list for `O=C(NCC12CC3CC(CC(C3)C1)C2)c1cc2nc[nH]c2cc1C(=O)N[C@@H](Cc1ccccc1)C(=O)Nc1cc(-c2nn[nH]n2)cc(-c2nn[nH]n2)c1`?
**A.** pKi [1]: 8.39; pKi [2]: 6.05

**Q.** Which results are given for `O=C(O)c1cc(NC(=O)[C@H](Cc2ccccc2)NC(=O)c2cc3cc[nH]c3cc2C(=O)NCC23CC4CC(CC(C4)C2)C3)cc(C(=O)O)c1`?
**A.** pKi [1]: 8.96; pKi [2]: 5.44; Inhibition (Canis familiaris): 79%; inhibition [3]: 97%

**Q.** How did the pKi [1] turn out when `O=C(O)c1cc(NC(=O)[C@H](Cc2ccccc2)NC(=O)c2cc3[nH]cnc3cc2C(=O)NCC23CC4CC(CC(C4)C2)C3)cc(C(=O)O)c1` was run?
**A.** 8.28

**Q.** What about the pKi [2] of the same compound?
**A.** 5.83

**Q.** And the inhibition [3]?
**A.** 61%

**Q.** `O=C(O)c1cc(NC(=O)[C@H](Cc2ccc(O)cc2)NC(=O)c2cc3[nH]cnc3cc2C(=O)NCC23CC4CC(CC(C4)C2)C3)cc(C(=O)O)c1` was tested. Which pKi [2] did it give?
**A.** 5.55

**Q.** With `O=C(NCC12CC3CC(CC(C3)C1)C2)c1cc2ccccc2cc1C(=O)N1CCC[C@@H]1C(=O)O` as the compound, how does the pKi [1] read?
**A.** 6.47

**Q.** And the pKi [2]?
**A.** 5.45

**Q.** What does the source list for `O=C(O)c1cc2ccccc2cc1C(=O)NCC12CC3CC(CC(C3)C1)C2`?
**A.** pKi [1]: 5.54; pKi [2]: 4.93

**Q.** Which results are given for `O=C(O)c1cc(NC(=O)[C@H](Cc2ccccc2F)NC(=O)c2cc3[nH]cnc3cc2C(=O)NCC2CCCCCC2)cc(C(=O)O)c1`?
**A.** pKi [1]: 8.12; pKi [2]: 5.13

**Q.** How did the pKi [1] turn out when `O=C(O)c1cc(NC(=O)[C@H](Cc2ccccc2)NC(=O)c2cc3ccccc3cc2C(=O)NCC23CC4CC(CC(C4)C2)C3)cc(C(=O)O)c1` was run?
**A.** 7.88

**Q.** What about the pKi [2] of the same compound?
**A.** 6.07

Source: ChEMBL document CHEMBL1129562, “Non-peptide cholecystokinin-B/gastrin receptor antagonists based on bicyclic, heteroaromatic skeletons” (J Med Chem, 1996)
